{"source": "paper PMC12631437", "about": "“Evaluation of the Activity of 4‑Quinolones against Multi-Life Stages of Plasmodium spp” (ACS Omega, 2025)", "key": {"[1]": {"test_system": "P. berghei exflagellation centers", "test": "Ex vivo exflagellation assay, blood of P. berghei infected mice", "assay_type": "cell-based, Plasmodium berghei", "conditions": "15 min incubation", "protocol": "For the ex vivo assays, a female CD1 mouse between 4 and 5 weeks of age (n = 3) was infected with P. berghei. After 4 days, when the presence of parasites (sexual phases) in the blood was observed by Giemsa-stained blood smear microscopy, the total blood from the mouse was collected into a preheated tube at 37 °C containing RPMI medium supplemented with 20% Fetal Bovine Serum (FBS) and 200 units/mL of heparin as an anticoagulant. The tube was maintained at 37 °C and centrifuged at 1500 rpm for 5 min. The supernatant was discarded, and the blood was resuspended in 20 mL of RPMI medium supplemented with 20% FBS.\nOne milliliter of resuspended blood was added to each well of a 6-well plate containing 5 μM methylene blue (positive control), test compound 1 at 10 μM and 1 μM, and DMSO (negative control). After 15 min, the wells were homogenized, and 10 μL of the content was collected into an Eppendorf tube and incubated at room temperature for another 15 min. The sample was then transferred to a Neubauer chamber, and exflagellation centers were counted using an optical microscope at 40× magnification."}, "[2]": {"test": "Mitochondrial toxicity, HepG2 cells cultured in glucose or galactose (resazurin)", "assay_type": "cell-based", "conditions": "human, 3.125–50 μM, read-out: cell viability", "protocol": "To evaluate mitochondrial toxicity, HepG2 cells were cultured in RPMI-1640 medium under two metabolic conditions: one group was maintained in standard RPMI supplemented with 2 g/L glucose (glucose condition), while the second group was gradually adapted to rely on galactose as the primary energy source. For this adaptation, glucose levels were reduced by 20% every 2 days until reaching a final concentration of 20% of the original glucose amount. On the day of the assay, the […] cells were cultured in glucose-free RPMI medium supplemented with 10 mM galactose. When cells reached 80% confluence, they were detached using 2 mL of trypsin-EDTA solution (0.2 g of EDTA) for 5 min at 37 °C, then resuspended in fresh medium and centrifuged at 100 × g for 1 min. After centrifugation, cells were counted using a Neubauer chamber and seeded at […] per well in 96-well plates containing 180 μL of culture medium. Plates were incubated at 37 °C with 5% CO2 for 12–16 h to allow for cell adhesion. […] After treatment, 40 μL of a 0.15 mg/mL resazurin solution (RSZ) was added to each well and incubated for an additional 5 h. RSZ is a nontoxic, cell-permeable blue dye that is reduced by metabolically active cells to highly fluorescent pink resorufin. Fluorescence was measured using a fluorimeter with excitation/emission at 560/590 nm. Cell viability was calculated relative to untreated controls (set at 100%), determined using GraphPad Prism 8."}, "[3]": {"test_system": "P. falciparum multidrug-resistant strains", "test": "SYBR Green growth assay, summary over panel of resistant strains", "assay_type": "cell-based", "conditions": "Plasmodium falciparum", "protocol": "(§1) Healthy blood samples for parasite culture were obtained from voluntary donors (approved under protocol #28176720.9.0000.0011), processed to remove white blood cells, and stored at 2 °C–8 °C for up to 15 days. Parasite strains SB1-A6, 7G8, V1/S, and HB3 were acquired from BEI-MR4, while the ATQ R1 strain, carrying a V259L gene mutation, was generated in-house. Infected erythrocytes were cultured in RPMI 1640 medium supplemented with Hepes, sodium bicarbonate, glucose, Albumax, and gentamicin, […], and incubated in a 5% CO2, 5% O2, and 90% N2 gas mixture at 37 °C with daily medium changes. Parasitemia was monitored using Giemsa-stained blood smears.\nBioassays were conducted with synchronized ring-stage parasites using sorbitol synchronization. Antimalarial compounds were evaluated in 96-well plates, and parasite growth was assessed using a SYBR Green-based fluorescence assay The assays were conducted when the parasite quantity reached at least 70% of the ring stage. […]\nTo assess parasite growth, the culture medium was replaced with a lysis solution (Trisbase: 49.31%, EDTA: 30.00%, Saponin: 0.16%, Triton: 0.02%) containing the fluorescent dye SYBR Green (Sigma). […] The IC50 values were determined using concentration–response curves generated in GraphPad 8 software. […]"}, "[4]": {"test_system": "Plasmodium over mammalian cells", "conditions": "specificity for Plasmodium over mammalian cells; previous studies; cited from earlier work"}, "[5]": {"test_system": "P. falciparum ATQ_R1 strain", "test": "SYBR Green growth assay, asexual blood stages, ATQ_R1 strain", "assay_type": "cell-based, Plasmodium falciparum", "conditions": "for IC50: Plasmodium falciparum", "protocol": "as §1\n(§2) Bioassays were conducted with synchronized ring-stage parasites using sorbitol synchronization. Antimalarial compounds were evaluated in 96-well plates, and parasite growth was assessed using a SYBR Green-based fluorescence assay The assays were conducted when the parasite quantity reached at least 70% of the ring stage. Compounds were initially added at specific concentrations in the first wells, followed by serial dilution (1:2) ranging from 20 μM to 0.009 μM. Subsequently, a solution containing parasites in RPMI medium at a hematocrit of 2% was added to each well, and the parasites were then incubated for 72 h.\n(§3) To assess parasite growth, the culture medium was replaced with a lysis solution (Trisbase: 49.31%, EDTA: 30.00%, Saponin: 0.16%, Triton: 0.02%) containing the fluorescent dye SYBR Green (Sigma). After a 30 min incubation, fluorescence readings were taken to determine the 50% inhibitory concentration (IC50) of parasite growth. The IC50 values were determined using concentration–response curves generated in GraphPad 8 software. Additionally, the resistance index was calculated by comparing IC50 values obtained for the sensitive 3D7 strain with those of the resistant strains."}, "[6]": {"test_system": "P. falciparum V1/S strain", "test": "microbe, parasite or virus in culture", "assay_type": "cell-based, Plasmodium falciparum", "conditions": "for IC50: Plasmodium falciparum", "protocol": "as §1, §2, §3"}, "[7]": {"test_system": "P. berghei sexual phases in An. stephensi", "test": "In vivo transmission-blocking assay, P. berghei infected CD1 mice, An. stephensi", "set-up": "species or system Plasmodium berghei", "conditions": "2 doses of 50 mg/kg 12 h apart", "protocol": "For this assay, a colony of An. stephensi was used. The lab-reared An. stephensi was kept under controlled conditions, with a temperature of 26 °C ± 1 °C, a 12/12 h light/dark cycle, a relative humidity of 70% ± 10%, and fed a 30% sugar solution as needed.\nFemale CD1 mice (4 to 6 weeks old) were infected by intraperitoneal inoculation (i.p.) containing 10 million erythrocytes infected with P. berghei expressing the GFP fluorescent protein. After 4 days, when parasites in the sexual stages were detected via Giemsa-stained blood smears, mice with similar gametocytemia and parasitemia were randomly divided into three groups of two animals each. The groups of two mices were treated orally with compound 1 at two doses of 50 mg/kg, spaced 12 h apart. […] Following the second dose, mice were anesthetized and placed in individual cages containing approximately 50 female A. stephensi mosquitoes, which had been starved for 24 h before the assay. Blood feeding lasted for 30 min, after which unfed mosquitoes were removed. Engorged females were maintained in an insectary at 21 ± 1 °C and 60% relative humidity, receiving a 30% glucose solution.\nA group of 10 mosquitoes was set aside to assess sporozoite development in salivary glands, following a protocol similar to the one described previously, with dissections performed 21 days postblood meal. Additionally, 10 μL of mouse blood was collected immediately after treatment with the compounds and incubated at room temperature for 15 min. Exflagellation was observed under optical microscopy to evaluate the effect of 4-quinolone-derived molecules on microgametocyte activity."}}, "note": "“And” between values parts separate entries of the source, which are not always exact repeats. Identical values can stand only once. Like-named read-outs stand apart in the source and are kept apart here."}
{"smiles": "CCCCCCCCCCCc1cc(=O)c2ccccc2[nH]1", "note": "[compound 1, 2-Undecilquinolin-4(1H)-one]", "values": [{"measurement": "reduction of exflagellation centers (ex vivo)", "setting": "[1]; 1 μM", "value": "23,8% and 24%"}, {"measurement": "reduction of exflagellation centers (ex vivo)", "setting": "[1]; 10 μM", "value": "63,9% and 64%"}, {"measurement": "viability at 24 h", "setting": "[2]; HepG2 cells adapted to galactose, HepG2 in galactose", "value": "< 0.5", "unit": "%"}, {"measurement": "viability at 24 h", "setting": "[2]; HepG2 cells cultured in glucose, HepG2 in glucose", "value": "> 50", "unit": "%"}, {"measurement": "IC50", "setting": "[3]; HB3, read-out: IC50 values", "value": "60 to 800", "unit": "nM"}, {"measurement": "IC50", "setting": "[3]; TM90C6B, read-out: submicromolar activity", "value": "290 to 790", "unit": "nM"}, {"measurement": "selectivity index (SI)", "setting": "[4]", "value": "> 120"}, {"measurement": "IC50", "setting": "[5]; 72 h", "value": "600 ± 100", "unit": "nM"}, {"measurement": "IC50", "setting": "[5]; read-out: IC50 (Figure S1)", "value": 800, "unit": "nM"}, {"measurement": "RI (resistance index)", "setting": "[5]; ratio of IC50 ATQ_R1 to 3D7", "value": 3.0}, {"measurement": "IC50", "setting": "[6]; 72 h", "value": "800 ± 100", "unit": "nM"}, {"measurement": "IC50", "setting": "[6]; read-out: IC50 (Figure S1)", "value": 700, "unit": "nM"}, {"measurement": "RI (resistance index)", "setting": "[6]; ratio of IC50 V1S to 3D7", "value": 4.0}, {"measurement": "Prevalence of infection in An. stephensi mosquitoes (Positive)", "setting": "[7]", "value": 70, "unit": "%"}, {"measurement": "reduction in the infection rate (salivary glands)", "setting": "[7]; 21 days postinfection", "value": 91, "unit": "%"}, {"measurement": "reduction in the number of P. berghei sporozoites (in vivo)", "setting": "[7]; 21 days postinfection, 50 mg/kg", "value": "91,30% and 91%"}, {"measurement": "reduction in male exflagellation centers (in vivo)", "setting": "[7]; blood at mosquito feeding, 50 mg/kg", "value": "85,17% and 85%"}]}
